Patent publication US7932290B2, “Method for the treatment of metabolic disorders” (Wellstat Biologics Corporation, priority 2003, dated 2011)

Columns and labels:
[1] = system: Human PPARγ LBD fusion protein; assay: Transcription activation potential, GAL4 luciferase reporter in C3A cells; assay type: cell-based
Description: (§1) Cells were seeded in 24 well plates the day prior to transfection at 5×10^4−2×10^5 cells/well, depending upon cell type. Cells were transfected using Lipofectamine 2000 reagent from Invitrogen. A total of 0.8 μg DNA/well was added to 50 μL of Optimem Reduced Serum media (serum free; Gibco). Lipofectamine 2000 was added (2.5 μL/well) to another tube containing 50 μL of Optimem media. Plasmid DNA was added at a ratio of 4:3 (reporter:activator); where appropriate, salmon sperm DNA was substituted for activator expressing plasmid. […] DNA constructs containing the mouse PPARα or PPARγ LBD fused to the GAL4 DNA binding domain were also used. The two solutions were incubated at room temperature for 5 min, and then combined. The combined solution was incubated at room temperature for approximately 30 min. Cells were washed once with PBS, and 100 μL of transfection mix added to each well. Plates were incubated at 37° C. in a 5% CO2 incubator for 4.5 hr, followed by aspiration of the transfection mix, with plates refed using EMEM complete media (supplemented with 10% FBS, 1× Glutamine). 24 hr post-transfection, plates were treated with the appropriate compounds in EMEM complete media, followed by washing once with PBS and addition of 100 μL 1× reporter lysis buffer/well (Promega) 24 hr after treatment. Plates went through one freeze/thaw cycle prior to analysis. Approximately 10 μL of lysate was added to 100 μL of firefly luciferase substrate, mixed by pipetting, and analyzed on a luminometer for 10 s using the integration function (relative luciferase units/RLU) or on a Microbeta Trilux (luciferase counts per second/LCPS). Each treatment was performed in triplicate, and in multiple, separate experiments.

[2] = molecular target: T1, Mouse PPARγ LBD fusion protein (Mus musculus, UniProt P37238); assay: as above; assay type: cell-based
T1 sequence (P37238 238-503): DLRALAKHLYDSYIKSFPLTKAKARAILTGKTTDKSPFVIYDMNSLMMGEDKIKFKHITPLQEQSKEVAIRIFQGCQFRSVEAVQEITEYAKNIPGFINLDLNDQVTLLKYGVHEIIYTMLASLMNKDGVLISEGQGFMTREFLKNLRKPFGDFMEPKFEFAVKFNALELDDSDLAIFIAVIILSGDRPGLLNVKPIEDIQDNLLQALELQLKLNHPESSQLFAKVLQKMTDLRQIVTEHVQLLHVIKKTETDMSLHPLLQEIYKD
Description: as §1

[3] = molecular target: T1, Mouse PPARγ LBD fusion protein; assay: Transcription activation potential, GAL4 luciferase reporter in Hepa1.6 cells; assay type: cell-based
Description: as §1

[4] = system: male ob/ob mouse model of Type II diabetes; assay: Antidiabetic effects in ob/ob mice (serum chemistry after 2 weeks daily oral dosing); assay type: in vivo; parameters: key to Glucose ± SEM: serum glucose in mg/dl; Triglycerides ± SEM / Free Fatty Acids ± SEM: unit not given here; details: for Glucose / Glucose (% of Control): 2 weeks; for Glucose ± SEM: Table 15
Description: Obese (ob/ob) mice have a defect in the protein leptin, a regulator of appetite and fuel metabolism, leading to hyperphagia, obesity and diabetes.
Male obese (ob/ob homozygote) C57BL/6J mice, approximately 8 weeks of age, were obtained from Jackson Labs (Bar Harbor, Me.) and randomly assigned into groups of 5 animals each such that the body weights (45-50 g) and serum glucose levels (≧300 mg/dl in fed state) were similar between groups. A minimum of 7 days was allowed for adaptation after arrival. All animals were maintained under controlled temperature (23° C.), relative humidity (50±5%) and light (7:00-19:00), and allowed free access to standard chow (Formulab Diet 5020 Quality Lab Products, Elkridge, Md.) and water.
Treatment cohorts were given daily oral doses of vehicle (1% hydroxypropyl-methylcellulose), Compounds BI, CF, CA, CB, CC, or CD for 2 weeks. At the end of the treatment period 100 μl of venous blood was withdrawn in a heparinized capillary tube from the retro-orbital sinus of ob/ob mice for serum chemistry analysis.

db/db mice = assay: Antidiabetic effects in db/db mice, Example B (2 weeks daily oral dosing); assay type: in vivo, mouse
Text: db/db mice have a defect in leptin signaling, leading to hyperphagia, obesity and diabetes. Moreover, unlike ob/ob mice on a C57BL/6J background, db/db mice on a C57BL/KS background undergo failure of their insulin-producing pancreatic islet cells, resulting in progression from hyperinsulinemia (associated with peripheral insulin resistance) to hypoinsulinemic diabetes.
Male obese (db/db homozygote) C57BL/Ksola mice approximately 8 weeks of age, were obtained from Jackson Labs (Bar Harbor, Me.) and randomly assigned into groups of 5-7 animals such that the body weights (50-55 g) and serum glucose levels (≧300 mg/dl in fed state) were similar between groups; male lean (db/+heterozygote) mice served as cohort controls. A minimum of 7 days was allowed for adaptation after arrival. All animals were maintained under controlled temperature (23° C.), relative humidity (50±5%) and light (7:00-19:00), and allowed free access to standard chow (Formulab Diet 5008, Quality Lab Products, Elkridge, Md.) and water.
Treatment cohorts were given daily oral doses of Vehicle (1% hydroxypropylmethylcellulose), Compounds BI, CE, BT, BV, […] or Fenofibrate for 2 weeks. At the end of the treatment period 100 μl of venous blood was withdrawn in a heparinized capillary tube from the retro-orbital sinus of db/db mice for serum chemistry analysis.

[5] = 100 mg/kg, 2 weeks daily oral dosing
[6] = serum, 2 weeks daily oral, dose not given in Table 17 (see Table 16)

transcription activation potential (luciferase) ± standard deviation ([2]; 1 μM test compound, Table 20b): 2.4 ± 2.26 LCPS | transcription activation potential (luciferase) ± standard deviation ([2]; 1 μM, Table 21b): 746 ± 362 RLU | transcription activation potential (luciferase) ± standard deviation ([2]; 3 μM test compound, Table 20b): 2.6 ± 1.41 LCPS | transcription activation potential (luciferase) ± standard deviation ([2]; 3 μM, Table 21b): 174 ± 153 RLU | transcription activation potential (luciferase) ± standard deviation ([2]; 5 μM, Table 21b): 996 ± 855 RLU | transcription activation potential (luciferase) ± standard deviation ([2]; 7 μM, Table 21b): 220 ± 137 RLU | transcription activation potential (luciferase) ± standard deviation ([2]; 10 μM test compound, Table 20b): 2.2 ± 1.57 LCPS | transcription activation potential (luciferase) ± standard deviation ([2]; 10 μM, Table 21b): 479 ± 353 RLU | transcription activation potential (luciferase) ± standard deviation ([2]; 30 μM test compound, Table 20b): 4.9 ± 4.42 LCPS | transcription activation potential (luciferase) ± standard deviation ([2]; 30 μM, Table 21b): 557 ± 639 RLU | transcription activation potential (luciferase) ± standard deviation ([2]; 100 μM test compound, Table 20b): 2.63 ± 1.96 LCPS | transcription activation potential (luciferase) ± standard deviation ([2]; 100 μM, Table 21b): 3330 ± 1848 RLU | transcription activation potential (luciferase) ± standard deviation ([2]; 200 μM test compound, Table 20b): 65.77 ± 10.55 LCPS | transcription activation potential (luciferase) ± standard deviation ([3]; 1 μM): 210 ± 51 RLU | transcription activation potential (luciferase) ± standard deviation ([3]; 3 μM): 256 ± 33 RLU | transcription activation potential (luciferase) ± standard deviation ([3]; 5 μM): 254 ± 81 RLU | transcription activation potential (luciferase) ± standard deviation ([3]; 7 μM): 265 ± 61 RLU | transcription activation potential (luciferase) ± standard deviation ([3]; 10 μM): 355 ± 53 RLU | transcription activation potential (luciferase) ± standard deviation ([3]; 30 μM): 441 ± 203 RLU | transcription activation potential (luciferase) ± standard deviation ([3]; 100 μM): 820 ± 353 RLU
Structure (SMILES): Cc1cccc(C)c1COc1cccc(C(=O)CCC(=O)O)c1 [Compound BI, 4-(3-(2,6-Dimethylbenzyloxy)phenyl)-4-oxobutyric acid]
transcription activation potential (luciferase) ± standard deviation ([1]; 1 μM test compound): 43.3 ± 11.6 LCPS | transcription activation potential (luciferase) ± standard deviation ([1]; 3 μM test compound): 26 ± 4.5 LCPS | transcription activation potential (luciferase) ± standard deviation ([1]; 10 μM test compound): 40.1 ± 13.5 LCPS | transcription activation potential (luciferase) ± standard deviation ([1]; 30 μM test compound): 22.9 ± 10.3 LCPS | transcription activation potential (luciferase) ± standard deviation ([1]; 100 μM test compound): 34.6 ± 15.6 LCPS | transcription activation potential (luciferase) ± standard deviation ([1]; 200 μM test compound): 227.3 ± 25.8 LCPS | Free Fatty Acids ± SEM ([4]; 30 mg/kg): 1272.8 ± 32.5 | Triglycerides ± SEM ([4]; 30 mg/kg): 66.6 ± 3.6 | Glucose ([4]; 30 mg/kg daily oral): 301.4 ± 29.0 mg/dL | Glucose (% of Control) ([4]; 30 mg/kg daily oral): 71.0 ± 7.0 % of Control | Glucose ± SEM ([4]; 30 mg/kg): 301.4 ± 29.0 | Glucose ([4]; 60 mg/kg daily oral): 248.8 ± 20.0 mg/dL | Glucose (% of Control) ([4]; 60 mg/kg daily oral): 59.0 ± 5.0 % of Control | Free Fatty Acids ± SEM ([4]; 100 mg/kg): 1245.4 ± 20.0 | Triglycerides ± SEM ([4]; 100 mg/kg): 55.0 ± 3.4 | Glucose ([4]; 100 mg/kg daily oral): 196.3 ± 6.0 mg/dL | Glucose (% of Control) ([4]; 100 mg/kg daily oral): 46.0 ± 1.0 % of Control | reduction in blood glucose (in words) [4, 5]: significant reduction | reduction in free fatty acids (in words) [4, 5]: significant reduction | reduction in triglycerides (in words) [4, 5]: significant reduction | Glucose ± SEM ([4]; 100 mg/kg): 196.3 ± 6.0 | Glucose (% of Control) (db/db mice; 100 mg/kg daily oral, 2 weeks): 50 ± 6 % of Control | Glucose (db/db mice; nonfasting, 100 mg/kg daily oral, 2 weeks): 347.0 ± 43.1 mg/dL | Free Fatty Acids ± SEM (db/db mice; [6]): 1997.2 ± 196.4 µM | Triglycerides ± SEM (db/db mice; [6]): 77.8 ± 5.3 mg/dL
